Data as given in publication PMC11173846, “Comparison of HPLC, HPTLC, and In Silico Lipophilicity Parameters Determined for 5-Heterocyclic 2-(2,4-Dihydroxyphenyl)-1,3,4-thiadiazoles” (Molecules, 2024).

Experiment: Chromatographic lipophilicity overall (HPTLC and HPLC systems), structure-retention comparison and PCA
Assay type: physicochemical
Details: for lipophilicity by first principal component score (average value of lipophilicity, in words): PCA of experimental and computational data, PC1; for lipophilicity by heterocyclic substituent (chromatographic parameters, in words): Tables S1–S7, all chromatographic systems
Experimental: Chromatographic studies were carried out using both HPTLC and HPLC methods under the isocratic conditions. In all systems, there were stated linear relationships between the RM (HPTLC) or log kw (HPLC) values and the organic modifier content (ϕ) in the mobile phase. This is described by the Soczewinski–Wachtmeister equation [31] as follows:RM = RMw + bϕ(1) log k = log kw + bϕ(2) where ϕ expresses the volume fraction of the organic solvent in the mobile phase; RMw (log kw) corresponds to 0% of the organic solvent content in the mobile phase; b represents the slope of a regression line.
The retention behavior of the compounds was analyzed by HPTLC using the octyl C8 and octadecyl C18 stationary phases and MeOH, ACN, acetone, and dioxane as organic modifiers (Supplementary Materials Tables S1–S4). The chromatographic evaluation of using the HPLC methods was made in the systems, with C8/MeOH, C8/ACN, and C18/ACN analogous to HPTLC (Tables S5 and S7). The measurements using the IAM and Chol stationary phases and the buffered mobile phases (pH = 7.4) were additionally used (Supplementary Materials Tables S5–S7).
The lipophilicity parameters for the Et derivatives were usually higher than those for chlorine ones (1 and 2; 7 and 8). This was an expected effect, taking into account the hydrophobicity parameter π (Hansch–Fujita π constant) for these substituents. Deviations from this order were sometimes observed. […] (Supplementary Materials Tables S1–S7).
To investigate the similarity between the investigated compounds, the obtained experimental and computational data were analyzed using scaled principal component analysis.
The most important conclusion from the PCA analysis is that all coefficients, both computational and experimental ones, were highly redundant. In total, 85% of the information was common for them and could be collected together to form the first principal component. The score could be interpreted as an average value of lipophilicity.

Row | SMILES | lipophilicity by first principal component score (average value of lipophilicity, in words) | lipophilicity by heterocyclic substituent (chromatographic parameters, in words)
1 | Oc1ccc(-c2nnc(-c3ccn4c(Br)cnc4c3)s2)c(O)c1 [Compound 9] | lowest lipophilicity | 
2 | CCc1cc(-c2nnc(-c3cc4cc(Br)ccc4n3C)s2)c(O)cc1O [Compound 5] | highest lipophilicity | 
3 | Oc1cc(O)c(-c2nnc(-c3ccco3)s2)cc1Cl [Compound 1] |  | low lipophilicity
4 | Oc1ccc(-c2nnc(-c3ccc4nonc4c3)s2)c(O)c1 [Compound 6] |  | low lipophilicity
5 | Oc1ccc(-c2nnc(-c3ccc(N4CCOCC4)nc3)s2)c(O)c1 [Compound 13] |  | lowest lipophilicity
